Experimental data: patent US8895761B2, “4-phenylpyrane-3,5-diones, 4-phenylthiopyrane-3,5-diones and 2-phenylcyclohexane-1,3,5-triones as herbicides” (Syngenta Limited, priority 2007, dated 2014)

Assays:
Format in all cases: in vivo
[1] = test system: Alopecurus myosuroides (ALOMY); assay: Pre-emergence herbicidal glasshouse test, Alopecurus myosuroides; conditions: Alopecurus myosuroides, 312 h, rate 250 g/ha, evaluated after 13 days, scale 100 = total damage to plant, 0 = no damage
How it was run: (§1)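 Visual damage scores (0 = undamaged, top = plant totally killed) were taken 13 days after spraying. Treatment was given one day after sowing or at day 8 of cultivation, under 24/16° C. glasshouse conditions.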

Avena fatua (AVEFA) [2] = assay: Post-emergence herbicidal glasshouse test, Avena fatua; conditions: Avena fatua, 312 h, rate 250 g/ha, evaluated after 13 days, scale 100 = total damage to plant, 0 = no damage
How it was run: as §1

Avena fatua (AVEFA) [3] = assay: Pre-emergence herbicidal glasshouse test, Avena fatua; conditions: Avena fatua, 312 h, rate 250 g/ha, evaluated after 13 days, scale 100 = total damage to plant, 0 = no damage
How it was run: as §1

Lolium perenne (LOLPE) [4] = assay: Post-emergence herbicidal glasshouse test, Lolium perenne; conditions: 312 h, rate 250 g/ha, evaluated after 13 days, scale 100 = total damage to plant, 0 = no damage
How it was run: as §1

Lolium perenne (LOLPE) [5] = assay: Pre-emergence herbicidal glasshouse test, Lolium perenne; conditions: 312 h, rate 250 g/ha, evaluated after 13 days, scale 100 = total damage to plant, 0 = no damage
How it was run: as §1

[6] = test system: Alopecurus myosuroides (ALOMY); assay: Post-emergence herbicidal glasshouse test, Alopecurus myosuroides; conditions: Alopecurus myosuroides, 312 h, rate 250 g/ha, evaluated after 13 days, scale 100 = total damage to plant, 0 = no damage
How it was run: as §1

[7] = test system: Echinochloa crus-galli (ECHCG); assay: Post-emergence herbicidal glasshouse test, Echinochloa crus-galli; conditions: Echinochloa crus-galli, 312 h, rate 250 g/ha, evaluated after 13 days, scale 100 = total damage to plant, 0 = no damage
How it was run: as §1

[8] = test system: Echinochloa crus-galli (ECHCG); assay: Pre-emergence herbicidal glasshouse test, Echinochloa crus-galli; conditions: Echinochloa crus-galli, 312 h, rate 250 g/ha, evaluated after 13 days, scale 100 = total damage to plant, 0 = no damage
How it was run: as §1

CCc1cc(-c2cc(F)c(F)c(F)c2)ccc1C1=C(O)C(C)(C)S(=O)(=O)C(C)(C)C1=O [Compound B-18]
pest or weed control at 250 g/ha [1]: 30%
pest or weed control at 250 g/ha (Avena fatua (AVEFA) [2]): 90%
pest or weed control at 250 g/ha (Avena fatua (AVEFA) [3]): 30%
pest or weed control at 250 g/ha (Lolium perenne (LOLPE) [4]): 80%
pest or weed control at 250 g/ha (Lolium perenne (LOLPE) [5]): 50%
pest or weed control at 250 g/ha [6]: 70%
pest or weed control at 250 g/ha [7]: 80%
pest or weed control at 250 g/ha [8]: 30%

CCc1cc(-c2ccc(F)c(OC)c2)ccc1C1=C(O)C(C)(C)C(=O)C(C)(C)C1=O [Compound C-3]
pest or weed control at 250 g/ha [1]: 10%
pest or weed control at 250 g/ha (Avena fatua (AVEFA) [2]): 50%
pest or weed control at 250 g/ha (Avena fatua (AVEFA) [3]): 0%
pest or weed control at 250 g/ha (Lolium perenne (LOLPE) [4]): 60%
pest or weed control at 250 g/ha (Lolium perenne (LOLPE) [5]): 10%
pest or weed control at 250 g/ha [6]: 30%
pest or weed control at 250 g/ha [7]: 70%
pest or weed control at 250 g/ha [8]: 10%

CCc1cc(-c2ccc(F)c(F)c2)ccc1C1=C(O)C(C)(C)C(=O)C(C)(C)C1=O [Compound C-4]
pest or weed control at 250 g/ha [1]: 20%
pest or weed control at 250 g/ha (Avena fatua (AVEFA) [2]): 30%
pest or weed control at 250 g/ha (Avena fatua (AVEFA) [3]): 0%
pest or weed control at 250 g/ha (Lolium perenne (LOLPE) [4]): 80%
pest or weed control at 250 g/ha (Lolium perenne (LOLPE) [5]): 20%
pest or weed control at 250 g/ha [6]: 80%
pest or weed control at 250 g/ha [7]: 70%
pest or weed control at 250 g/ha [8]: 0%

CCc1cc(-c2cc(F)c(F)c(F)c2)ccc1C1=C(O)C(C)(C)C(=O)C(C)(C)C1=O [Compound C-5]
pest or weed control at 250 g/ha [1]: 30%
pest or weed control at 250 g/ha (Avena fatua (AVEFA) [2]): 90%
pest or weed control at 250 g/ha (Avena fatua (AVEFA) [3]): 20%
pest or weed control at 250 g/ha (Lolium perenne (LOLPE) [4]): 70%
pest or weed control at 250 g/ha (Lolium perenne (LOLPE) [5]): 40%
pest or weed control at 250 g/ha [6]: 100%
pest or weed control at 250 g/ha [7]: 100%
pest or weed control at 250 g/ha [8]: 0%

CCc1cc(-c2cc(Cl)ccc2OC)ccc1C1=C(O)C(C)(C)C(=O)C(C)(C)C1=O [Compound C-6]
pest or weed control at 250 g/ha [1]: 40%
pest or weed control at 250 g/ha (Avena fatua (AVEFA) [2]): 10%
pest or weed control at 250 g/ha (Avena fatua (AVEFA) [3]): 10%
pest or weed control at 250 g/ha (Lolium perenne (LOLPE) [4]): 20%
pest or weed control at 250 g/ha (Lolium perenne (LOLPE) [5]): 70%
pest or weed control at 250 g/ha [6]: 20%
pest or weed control at 250 g/ha [7]: 50%
pest or weed control at 250 g/ha [8]: 0%

CCc1cc(-c2cc(F)c(F)cc2F)ccc1C1=C(O)C(C)(C)C(=O)C(C)(C)C1=O [Compound C-7]
pest or weed control at 250 g/ha [1]: 30%
pest or weed control at 250 g/ha (Avena fatua (AVEFA) [2]): 10%
pest or weed control at 250 g/ha (Avena fatua (AVEFA) [3]): 0%
pest or weed control at 250 g/ha (Lolium perenne (LOLPE) [4]): 60%
pest or weed control at 250 g/ha (Lolium perenne (LOLPE) [5]): 20%
pest or weed control at 250 g/ha [6]: 40%
pest or weed control at 250 g/ha [7]: 40%
pest or weed control at 250 g/ha [8]: 0%

CCc1cc(-c2ccc(F)c(F)c2F)ccc1C1=C(O)C(C)(C)C(=O)C(C)(C)C1=O [Compound C-8]
pest or weed control at 250 g/ha [1]: 10%
pest or weed control at 250 g/ha (Avena fatua (AVEFA) [2]): 10%
pest or weed control at 250 g/ha (Avena fatua (AVEFA) [3]): 0%
pest or weed control at 250 g/ha (Lolium perenne (LOLPE) [4]): 60%
pest or weed control at 250 g/ha (Lolium perenne (LOLPE) [5]): 30%
pest or weed control at 250 g/ha [6]: 60%
pest or weed control at 250 g/ha [7]: 60%
pest or weed control at 250 g/ha [8]: 30%

CCc1cc(-c2ccc(Cl)c(Cl)c2)ccc1C1=C(OC(C)=O)C(C)(C)OC(C)(C)C1=O [Compound D-2]
pest or weed control at 250 g/ha [1]: 30%
pest or weed control at 250 g/ha (Avena fatua (AVEFA) [2]): 40%
pest or weed control at 250 g/ha (Avena fatua (AVEFA) [3]): 20%
pest or weed control at 250 g/ha (Lolium perenne (LOLPE) [4]): 80%
pest or weed control at 250 g/ha (Lolium perenne (LOLPE) [5]): 100%
pest or weed control at 250 g/ha [6]: 70%
pest or weed control at 250 g/ha [7]: 90%
pest or weed control at 250 g/ha [8]: 90%

CCc1cc(-c2ccc(F)cc2)ccc1C1=C(OC(C)=O)C(C)(C)OC(C)(C)C1=O [Compound D-3]
pest or weed control at 250 g/ha [1]: 90%
pest or weed control at 250 g/ha (Avena fatua (AVEFA) [2]): 80%
pest or weed control at 250 g/ha (Avena fatua (AVEFA) [3]): 70%
pest or weed control at 250 g/ha (Lolium perenne (LOLPE) [4]): 100%
pest or weed control at 250 g/ha (Lolium perenne (LOLPE) [5]): 100%
pest or weed control at 250 g/ha [6]: 100%
pest or weed control at 250 g/ha [7]: 100%
pest or weed control at 250 g/ha [8]: 100%

CCc1cc(-c2ccc(F)cc2)ccc1C1=C(OC(=O)C(C)(C)C)C(C)OC(C)(C)C1=O [Compound D-9]
pest or weed control at 250 g/ha [1]: 60%
pest or weed control at 250 g/ha (Avena fatua (AVEFA) [2]): 10%
pest or weed control at 250 g/ha (Avena fatua (AVEFA) [3]): 0%
pest or weed control at 250 g/ha (Lolium perenne (LOLPE) [4]): 80%
pest or weed control at 250 g/ha (Lolium perenne (LOLPE) [5]): 90%
pest or weed control at 250 g/ha [6]: 70%
pest or weed control at 250 g/ha [7]: 80%
pest or weed control at 250 g/ha [8]: 50%
